HELM strings list units from the 5' end as sugar, base in round brackets, then linkage (d deoxyribose, r ribose, m 2'-O-methyl, p phosphodiester). Strings are as the collection lists them, not checked against the first reports. ss, as = sense and antisense strand; [fl2r] = 2'-fluoro
Conditions: siRNA
Note: test system not given here.

In the case of “RNA1{[fl2r](A)p.r(G)p.[fl2r](A)p.r(G)p.[fl2r](A)p.r(G)p.[fl2r](G)p.r(U)p.[fl2r](G)p.r(G)p.[fl2r](A)p.r(G)p.[fl2r](G)p.r(U)p.[fl2r](A)p.r(U)p.[fl2r](C)p.r(U)p.[fl2r](C)p.r(T)p.r(T)}|RNA2{r(G)p.[fl2r](A)p.r(G)p.[fl2r](A)p.r(U)p.[fl2r](A)p.r(C)p.r(C)p.r(U)p.r(C)p.r(C)p.[fl2r](A)p.r(C)p.r(C)p.r(U)p.r(C)p.r(U)p.r(C)p.r(U)p.r(T)p.r(T)}$$$RNA1{StrandType:ss}|RNA2{StrandType:as}$”, the target mRNA knockdown is reported as 68%.
Work on “RNA1{[fl2r](A)p.r(G)p.[fl2r](C)p.r(C)p.[fl2r](C)p.r(A)p.[fl2r](G)p.r(A)p.[fl2r](U)p.r(A)p.[fl2r](G)p.r(C)p.[fl2r](U)p.r(C)p.[fl2r](U)p.r(U)p.[fl2r](C)p.r(A)p.[fl2r](G)p.r(T)p.r(T)}|RNA2{r(C)p.r(U)p.r(G)p.r(A)p.r(A)p.r(G)p.r(A)p.r(G)p.r(C)p.r(U)p.r(A)p.r(U)p.r(C)p.r(U)p.r(G)p.r(G)p.r(G)p.r(C)p.r(U)p.r(T)p.r(T)}$$$RNA1{StrandType:ss}|RNA2{StrandType:as}$” yielded a target mRNA knockdown of 35%.
“RNA1{[fl2r](A)p.r(G)p.[fl2r](C)p.r(C)p.[fl2r](U)p.r(C)p.[fl2r](C)p.r(A)p.[fl2r](A)p.r(A)p.[fl2r](C)p.r(U)p.[fl2r](C)p.r(C)p.[fl2r](U)p.r(A)p.[fl2r](G)p.r(C)p.[fl2r](U)p.r(T)p.r(T)}|RNA2{r(A)p.r(G)p.r(C)p.r(U)p.r(A)p.r(G)p.r(G)p.r(A)p.r(G)p.r(U)p.r(U)p.r(U)p.r(G)p.r(G)p.r(A)p.r(G)p.r(G)p.r(C)p.r(U)p.r(T)p.r(T)}$$$RNA1{StrandType:ss}|RNA2{StrandType:as}$” gave a target mRNA knockdown of 16%.
“RNA1{[fl2r](A)p.r(G)p.[fl2r](G)p.r(A)p.[fl2r](G)p.r(A)p.[fl2r](C)p.r(C)p.[fl2r](G)p.r(U)p.[fl2r](G)p.r(A)p.[fl2r](C)p.r(A)p.[fl2r](U)p.r(U)p.[fl2r](U)p.r(C)p.[fl2r](G)p.r(T)p.r(T)}|RNA2{r(C)p.[fl2r](G)p.r(A)p.r(A)p.r(A)p.r(U)p.[fl2r](G)p.r(U)p.r(C)p.r(A)p.r(C)p.[fl2r](G)p.[fl2r](G)p.r(U)p.r(C)p.r(U)p.r(C)p.r(C)p.r(U)p.r(T)p.r(T)}$$$RNA1{StrandType:ss}|RNA2{StrandType:as}$” showed a target mRNA knockdown of 33%.
Substance “RNA1{[fl2r](A)p.r(G)p.[fl2r](U)p.r(U)p.[fl2r](A)p.r(A)p.[fl2r](C)p.r(C)p.[fl2r](C)p.r(G)p.[fl2r](G)p.r(G)p.[fl2r](A)p.r(C)p.[fl2r](U)p.r(U)p.[fl2r](G)p.r(G)p.[fl2r](A)p.r(T)p.r(T)}|RNA2{r(U)p.r(C)p.r(C)p.r(A)p.r(A)p.r(G)p.r(U)p.r(C)p.r(C)p.r(C)p.r(G)p.r(G)p.r(G)p.r(U)p.r(U)p.r(A)p.r(A)p.r(C)p.r(U)p.r(T)p.r(T)}$$$RNA1{StrandType:ss}|RNA2{StrandType:as}$” has a target mRNA knockdown of 65%.
Work on “RNA1{[fl2r](A)p.r(G)p.[fl2r](U)p.r(U)p.[fl2r](U)p.r(C)p.[fl2r](U)p.r(A)p.[fl2r](G)p.r(G)p.[fl2r](G)p.[fl2r](C)p.r(C)p.[fl2r](G)p.r(U)p.r(G)p.[fl2r](G)p.r(C)p.r(C)p.r(T)p.r(T)}|RNA2{r(G)p.r(G)p.r(C)p.r(C)p.r(A)p.r(C)p.r(G)p.r(G)p.r(C)p.r(C)p.r(C)p.r(U)p.r(A)p.r(G)p.r(A)p.r(A)p.r(A)p.r(C)p.r(U)p.r(T)p.r(T)}$$$RNA1{StrandType:ss}|RNA2{StrandType:as}$” yielded a target mRNA knockdown of 75%.
Substance “RNA1{[fl2r](A)p.r(G)p.r(A)p.[fl2r](G)p.r(A)p.[fl2r](A)p.r(G)p.[fl2r](G)p.[fl2r](G)p.r(C)p.r(G)p.[fl2r](U)p.r(C)p.r(U)p.r(C)p.[fl2r](U)p.r(A)p.[fl2r](C)p.r(A)p.r(T)p.r(T)}|RNA2{r(U)p.r(G)p.r(U)p.r(A)p.r(G)p.r(A)p.r(G)p.r(A)p.r(C)p.r(G)p.r(C)p.r(C)p.r(C)p.r(U)p.r(U)p.r(C)p.r(U)p.r(C)p.r(U)p.r(T)p.r(T)}$$$RNA1{StrandType:ss}|RNA2{StrandType:as}$” has a target mRNA knockdown of 75%.
With “RNA1{[fl2r](A)p.r(U)p.[fl2r](C)p.r(G)p.[fl2r](C)p.r(U)p.[fl2r](G)p.r(C)p.[fl2r](U)p.r(C)p.[fl2r](C)p.r(U)p.[fl2r](C)p.r(C)p.[fl2r](U)p.r(C)p.[fl2r](C)p.r(U)p.[fl2r](C)p.r(T)p.r(T)}|RNA2{r(G)p.r(A)p.r(G)p.r(G)p.r(A)p.r(G)p.r(G)p.r(A)p.r(G)p.r(G)p.r(A)p.r(G)p.r(C)p.r(A)p.r(G)p.r(C)p.r(G)p.r(A)p.[fl2r](U)p.r(T)p.r(T)}$$$RNA1{StrandType:ss}|RNA2{StrandType:as}$” the target mRNA knockdown was 39%.
For “RNA1{[fl2r](A)p.r(U)p.r(C)p.[fl2r](G)p.[fl2r](A)p.r(C)p.r(C)p.r(U)p.[fl2r](G)p.[fl2r](A)p.[fl2r](A)p.[fl2r](G)p.[fl2r](G)p.[fl2r](A)p.[fl2r](G)p.r(U)p.[fl2r](A)p.r(C)p.[fl2r](G)p.r(T)p.r(T)}|RNA2{r(C)p.[fl2r](G)p.r(U)p.[fl2r](A)p.r(C)p.r(U)p.r(C)p.r(C)p.r(U)p.r(U)p.r(C)p.[fl2r](A)p.[fl2r](G)p.[fl2r](G)p.r(U)p.r(C)p.[fl2r](G)p.[fl2r](A)p.r(U)p.r(T)p.r(T)}$$$RNA1{StrandType:ss}|RNA2{StrandType:as}$”, the target mRNA knockdown was 21%.
“RNA1{[fl2r](C)p.[fl2r](U)p.r(A)p.[fl2r](G)p.r(A)p.r(G)p.[fl2r](G)p.r(A)p.[fl2r](U)p.[fl2r](C)p.[fl2r](U)p.[fl2r](U)p.r(G)p.r(A)p.[fl2r](A)p.r(G)p.r(A)p.[fl2r](C)p.[fl2r](C)p.r(T)p.r(T)}|RNA2{r(G)p.r(G)p.[fl2r](U)p.[fl2r](C)p.[fl2r](U)p.[fl2r](U)p.[fl2r](C)p.r(A)p.r(A)p.r(G)p.r(A)p.[fl2r](U)p.[fl2r](C)p.[fl2r](C)p.[fl2r](U)p.[fl2r](C)p.[fl2r](U)p.r(A)p.r(G)p.r(T)p.r(T)}$$$RNA1{StrandType:ss}|RNA2{StrandType:as}$” gave a target mRNA knockdown of 12%.
“RNA1{[fl2r](C)p.r(A)p.r(G)p.[fl2r](C)p.r(A)p.r(A)p.r(A)p.[fl2r](C)p.[fl2r](C)p.r(A)p.[fl2r](C)p.r(G)p.r(A)p.[fl2r](U)p.[fl2r](C)p.r(A)p.r(A)p.[fl2r](U)p.r(A)p.r(T)p.r(T)}|RNA2{[fl2r](U)p.r(A)p.[fl2r](U)p.[fl2r](U)p.r(G)p.r(A)p.[fl2r](U)p.[fl2r](C)p.r(G)p.[fl2r](U)p.r(G)p.r(G)p.[fl2r](U)p.[fl2r](U)p.[fl2r](U)p.r(G)p.[fl2r](C)p.[fl2r](U)p.r(G)p.r(T)p.r(T)}$$$RNA1{StrandType:ss}|RNA2{StrandType:as}$” showed a target mRNA knockdown of 71%.
For “RNA1{[fl2r](C)p.r(A)p.r(G)p.r(A)p.r(G)p.[fl2r](C)p.r(A)p.r(A)p.[fl2r](U)p.[fl2r](U)p.r(G)p.[fl2r](U)p.[fl2r](U)p.[fl2r](U)p.r(A)p.[fl2r](C)p.[fl2r](C)p.[fl2r](U)p.r(A)p.r(T)p.r(T)}|RNA2{[fl2r](U)p.r(A)p.r(G)p.r(G)p.[fl2r](U)p.r(A)p.r(A)p.r(A)p.[fl2r](C)p.r(A)p.r(A)p.[fl2r](U)p.[fl2r](U)p.r(G)p.[fl2r](C)p.[fl2r](U)p.[fl2r](C)p.r(U)p.r(G)p.r(T)p.r(T)}$$$RNA1{StrandType:ss}|RNA2{StrandType:as}$”, the target mRNA knockdown was 72%.
With “RNA1{[fl2r](C)p.r(C)p.[fl2r](C)p.r(U)p.[fl2r](C)p.r(C)p.[fl2r](C)p.r(C)p.[fl2r](U)p.r(G)p.[fl2r](U)p.r(C)p.[fl2r](C)p.r(C)p.[fl2r](C)p.r(G)p.[fl2r](C)p.r(U)p.[fl2r](U)p.r(T)p.r(T)}|RNA2{[fl2r](A)p.[fl2r](A)p.r(G)p.r(C)p.r(G)p.r(G)p.r(G)p.r(G)p.[fl2r](A)p.r(C)p.[fl2r](A)p.r(G)p.r(G)p.r(G)p.r(G)p.[fl2r](A)p.r(G)p.r(G)p.r(G)p.r(T)p.r(T)}$$$RNA1{StrandType:ss}|RNA2{StrandType:as}$” the target mRNA knockdown was 41%.
In the case of “RNA1{[fl2r](C)p.r(C)p.[fl2r](G)p.r(A)p.[fl2r](A)p.r(G)p.[fl2r](A)p.r(C)p.[fl2r](G)p.r(A)p.[fl2r](A)p.r(G)p.[fl2r](C)p.r(U)p.[fl2r](A)p.r(U)p.[fl2r](G)p.r(A)p.[fl2r](A)p.r(T)p.r(T)}|RNA2{r(U)p.r(U)p.r(C)p.r(A)p.r(U)p.r(A)p.[fl2r](G)p.r(C)p.r(U)p.r(U)p.r(C)p.[fl2r](G)p.r(U)p.r(C)p.r(U)p.r(U)p.r(C)p.[fl2r](G)p.[fl2r](G)p.r(T)p.r(T)}$$$RNA1{StrandType:ss}|RNA2{StrandType:as}$”, the target mRNA knockdown is reported as 23%.
Work on “RNA1{[fl2r](C)p.r(G)p.[fl2r](A)p.r(A)p.[fl2r](A)p.r(G)p.[fl2r](U)p.r(G)p.[fl2r](U)p.r(A)p.[fl2r](U)p.r(C)p.[fl2r](C)p.r(G)p.[fl2r](A)p.r(A)p.[fl2r](G)p.r(A)p.[fl2r](C)p.r(T)p.r(T)}|RNA2{[fl2r](G)p.r(U)p.r(C)p.r(U)p.r(U)p.r(C)p.[fl2r](G)p.[fl2r](G)p.r(A)p.r(U)p.r(A)p.r(C)p.r(A)p.r(C)p.r(U)p.r(U)p.r(U)p.r(C)p.[fl2r](G)p.r(T)p.r(T)}$$$RNA1{StrandType:ss}|RNA2{StrandType:as}$” yielded a target mRNA knockdown of 41%.
Substance “RNA1{[fl2r](C)p.r(G)p.[fl2r](A)p.r(C)p.[fl2r](G)p.r(A)p.[fl2r](U)p.r(U)p.[fl2r](C)p.r(U)p.[fl2r](U)p.r(C)p.[fl2r](U)p.r(A)p.[fl2r](C)p.r(U)p.[fl2r](C)p.r(A)p.[fl2r](A)p.r(T)p.r(T)}|RNA2{r(U)p.r(U)p.r(G)p.r(A)p.r(G)p.r(U)p.r(A)p.r(G)p.r(A)p.r(A)p.r(G)p.r(A)p.r(A)p.r(U)p.r(C)p.r(G)p.r(U)p.r(C)p.r(G)p.r(T)p.r(T)}$$$RNA1{StrandType:ss}|RNA2{StrandType:as}$” has a target mRNA knockdown of 56%.
For “RNA1{[fl2r](C)p.r(G)p.[fl2r](G)p.r(G)p.[fl2r](U)p.r(A)p.[fl2r](C)p.r(G)p.[fl2r](A)p.r(G)p.[fl2r](C)p.r(C)p.[fl2r](G)p.r(G)p.[fl2r](A)p.r(A)p.[fl2r](C)p.r(C)p.r(U)p.r(T)p.r(T)}|RNA2{r(A)p.r(G)p.r(G)p.r(U)p.r(U)p.r(C)p.r(C)p.r(G)p.r(G)p.r(C)p.r(U)p.r(C)p.r(G)p.r(U)p.r(A)p.r(C)p.r(C)p.r(C)p.r(G)p.r(T)p.r(T)}$$$RNA1{StrandType:ss}|RNA2{StrandType:as}$”, the target mRNA knockdown was 61%.

— the OligoGym collection
